For assay [1], the target named is intracellular GCN2 (phosphorylation of the GCN2 substrate eIF2α) (Homo sapiens (Human), UniProt Q9P2K8). Kind of assay: GCN2 Cellular Inhibition Assay (AlphaScreen SureFire P-eIF2α Ser51, borrelidin-treated U2OS cells). It counts as cell-based. The conditions noted are these: 10 μM borrelidin, 1 h, phosphorylated eIF2α Ser51, read-out: GCN2 Biomarker (IC50). In a few lines: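 Phospho-eIF2α (Ser51) measured by AlphaScreen SureFire in lysates of U2OS cells stimulated 1 h at 37 °C with 10 μM borrelidin alongside compound, 4-fold dilutions from 40 μM. Inhibition expressed as percent relative to borrelidin-alone controls.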
In general terms: Alpha assays give light when donor and acceptor beads are brought close together.

In the next assay the target is GCN2 kinase (Homo sapiens (Human), UniProt Q9P2K8). The assay can be described thus: GCN2 Enzyme Inhibition Assay (Transcreener ADP2 fluorescence polarization). The class given is biochemical. The conditions noted are these: 280 μM ATP, 200 μM (RS)7 peptide, 4 nM GCN2, 25° C. In a few lines: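 At 25 °C, GCN2 kinase (typical final concentration 4 nM) and (RS)7 peptide in Tris-HCl pH 7.5 buffer with MgCl2, NaCl and DTT were preincubated with compound for 10 min, then ATP was added for a 1 h reaction. ADP was read by FP with antibody/Alexa633 tracer. Non-linear tight-binding analysis gave IC50 and apparent Ki.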
(In general: In fluorescence polarisation assays a small probe gives low polarisation when free and higher when bound to something large.)

intracellular GCN2 (phosphorylation of the GCN2 substrate eIF2α), sequence (Q9P2K8 whole entry): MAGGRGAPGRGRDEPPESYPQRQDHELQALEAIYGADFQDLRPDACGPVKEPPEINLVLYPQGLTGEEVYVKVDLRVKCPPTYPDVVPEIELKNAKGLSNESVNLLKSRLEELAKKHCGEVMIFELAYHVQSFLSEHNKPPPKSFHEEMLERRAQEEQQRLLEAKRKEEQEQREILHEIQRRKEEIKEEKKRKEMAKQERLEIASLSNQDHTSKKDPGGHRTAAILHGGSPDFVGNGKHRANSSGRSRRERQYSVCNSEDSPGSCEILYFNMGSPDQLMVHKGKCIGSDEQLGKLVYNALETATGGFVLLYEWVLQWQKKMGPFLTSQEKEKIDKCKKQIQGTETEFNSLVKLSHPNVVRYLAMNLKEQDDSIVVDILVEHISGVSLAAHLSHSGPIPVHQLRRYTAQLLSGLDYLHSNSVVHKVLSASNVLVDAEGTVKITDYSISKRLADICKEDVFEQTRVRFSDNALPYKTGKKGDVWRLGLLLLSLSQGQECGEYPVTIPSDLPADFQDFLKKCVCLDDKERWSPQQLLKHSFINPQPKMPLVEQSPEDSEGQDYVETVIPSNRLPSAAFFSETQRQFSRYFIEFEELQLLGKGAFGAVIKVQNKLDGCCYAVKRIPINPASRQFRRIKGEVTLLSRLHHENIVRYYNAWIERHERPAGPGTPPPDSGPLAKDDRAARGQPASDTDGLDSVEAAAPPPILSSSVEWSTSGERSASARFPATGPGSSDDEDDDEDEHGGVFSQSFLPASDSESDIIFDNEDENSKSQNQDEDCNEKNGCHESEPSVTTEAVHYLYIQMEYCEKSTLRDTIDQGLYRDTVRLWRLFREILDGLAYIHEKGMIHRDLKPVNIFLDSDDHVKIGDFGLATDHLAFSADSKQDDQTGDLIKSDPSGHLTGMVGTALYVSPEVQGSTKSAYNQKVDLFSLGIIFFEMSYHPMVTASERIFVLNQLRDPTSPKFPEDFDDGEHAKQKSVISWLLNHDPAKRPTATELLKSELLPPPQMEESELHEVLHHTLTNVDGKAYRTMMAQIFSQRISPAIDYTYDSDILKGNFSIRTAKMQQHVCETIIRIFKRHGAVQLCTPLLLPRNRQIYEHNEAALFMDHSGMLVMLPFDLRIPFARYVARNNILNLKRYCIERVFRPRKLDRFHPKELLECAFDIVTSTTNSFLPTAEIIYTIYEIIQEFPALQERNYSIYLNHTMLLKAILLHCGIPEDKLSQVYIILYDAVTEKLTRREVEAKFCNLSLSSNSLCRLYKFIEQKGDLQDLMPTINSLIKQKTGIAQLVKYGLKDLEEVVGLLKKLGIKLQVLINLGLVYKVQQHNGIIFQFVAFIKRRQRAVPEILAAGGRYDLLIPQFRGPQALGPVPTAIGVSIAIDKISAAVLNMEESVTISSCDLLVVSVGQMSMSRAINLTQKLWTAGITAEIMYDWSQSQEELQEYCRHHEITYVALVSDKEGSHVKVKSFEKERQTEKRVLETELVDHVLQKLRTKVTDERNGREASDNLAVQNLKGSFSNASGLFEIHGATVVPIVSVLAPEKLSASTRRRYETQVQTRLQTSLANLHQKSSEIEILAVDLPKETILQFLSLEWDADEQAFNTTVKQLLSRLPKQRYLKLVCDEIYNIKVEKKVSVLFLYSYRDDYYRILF
GCN2 kinase, sequence (Q9P2K8 whole entry): as above

A word on the IC50: it is the concentration that inhibits the measured activity by half. For `NS(=O)(=O)c1ccc2ncc(-c3nccc(N4CCCC(c5cn[nH]c5)C4)n3)n2c1` (stereo not shown) [I-320, 3-(4-(3-(1H-pyrazol-4-yl)piperidin-1-yl)pyrimidin-2-yl)imidazo[1,2-a]pyridine-6-sulfonamide], the IC50 in assay [1] was in the range of 500 to 5000 nM; against GCN2 kinase it was 10 to 100 nM.

Turning to `Cc1[nH]ncc1C1NCCN(c2ccnc(-c3cnc4ccc(C(F)(F)F)cn34)n2)C1C` (stereo not shown) [I-321, 3-(4-(2-methyl-3-(5-methyl-1H-pyrazol-4-yl)piperazin-1-yl)pyrimidin-2-yl)-6-(trifluoromethyl)imidazo[1,2-a]pyridine], the IC50 in assay [1] lay within 500 to 5000 nM; against GCN2 kinase, 10 to 100 nM.

For the molecule `CC1C(c2cn[nH]c2)N(C2COC2)CCN1c1ccnc(-c2cnc3ccc(C(F)(F)F)cn23)n1` (stereo not shown) [I-322, 4-[2-methyl-4-(oxetan-3-yl)-3-(1H-pyrazol-4-yl)piperazin-1-yl]-2-[6-(trifluoromethyl)imidazo[1,2-a]pyridin-3-yl]pyrimidine], the IC50 is less than 500 nM in assay [1] and 10 to 100 nM against GCN2 kinase.

For the molecule `NC(=O)[C@@H]1CN(c2ccnc(-c3cnc4ccc(C(F)(F)F)cn34)n2)CCN1C1CC1` [I-324, (S)-1-cyclopropyl-4-(2-(6-(trifluoromethyl)imidazzo[1,2-a]pyridin-3-yl)pyrimidin-4-yl)piperazine-2-carboxamide], the figures for the half-maximal inhibitory concentration (IC50) (in assay [1]; against GCN2 kinase) were greater than 5000 nM and 100 to 1000 nM, respectively.

As for `C[C@@H]1C[C@H](N=S(C)(C)=O)CN(c2ccnc(-c3cnc4ccc(Oc5ccccc5)cn34)n2)C1` [I-325, dimethyl({[(3 S,5R)-5-methyl-1-(2-{6-phenoxyimidazo[1,2-a]pyridin-3-yl}pyrimidin-4-yl)piperidin-3-yl]imino})-λ6-sulfanone], the IC50 in assay [1] was in the range of 500 to 5000 nM; against GCN2 kinase, 100 to 1000 nM.

Regarding `Fc1cc2ncc(-c3nccc(N4CCCC(c5cn[nH]c5)C4)n3)n2cc1Br` (stereo not shown) [I-326, 3-(4-(3-(1H-pyrazol-4-yl)piperidin-1-yl)pyrimidin-2-yl)-6-bromo-7-fluoroimidazo[1,2-a]pyridine], the half-maximal inhibitory concentration (IC50) was less than 500 nM in assay [1] and less than 10 nM at GCN2 kinase.

Take `CC(NS(C)(=O)=O)C1CN(c2ccnc(-c3cnc4ccc(C(F)(F)F)cn34)n2)CCO1` (stereo not shown) [I-327, N-(1-(4-(2-(6-(trifluoromethyl)imidazo[1,2-a]pyridin-3-yl)pyrimidin-4-yl)morpholin-2-yl)ethyl)methanesulfonamide]: the figures for the IC50 (in assay [1]; against GCN2 kinase) were 500 to 5000 nM and 10 to 100 nM, respectively.

Turning to `c1ccc(Oc2ccc3ncc(-c4nccc(N5CCCC(c6cn[nH]c6)C5)n4)n3c2)cc1` (stereo not shown) [I-329, 2-{6-phenoxyimidazo[1,2-a]pyridin-3-yl}-4-[3-(1H-pyrazol-4-yl)piperidin-1-yl]pyrimidine], the IC50 in assay [1] is less than 500 nM; against GCN2 kinase it was 10 to 100 nM.

Take `CC1(C)CN(c2ccnc(-c3cnc4ccc(C(F)(F)F)cn34)n2)CCN1S(C)(=O)=O` [I-339, 3-(4-(3,3-dimethyl-4-(methylsulfonyl)piperazin-1-yl)pyrimidin-2-yl)-6-(trifluoromethyl)imidazo[1,2-a]pyridine]: the figures for the concentration for half-maximal inhibition (IC50) (in assay [1]; on GCN2 kinase) were 500 to 5000 nM and 10 to 100 nM, respectively.

As for `C[C@@H]1C[C@H](N=S(C)(C)=O)CN(c2ccnc(-c3cnc4ccc(C(F)F)cn34)n2)C1` [I-340, (((3 S, 5R)-1-(2-(6-(difluoromethyl)imidazo[1,2-a]pyridin-3-yl)pyrimidin-4-yl)-5-methylpiperidin-3-yl)imino)dimethyl-λ6-sulfanone], the 50% inhibitory concentration (IC50) in assay [1] was less than 500 nM; against GCN2 kinase, less than 10 nM.

For the molecule `Cc1[nH]ncc1[C@H]1C[C@@H](N=S(C)(C)=O)CN(c2ccnc(-c3cnc4ccc(C(F)(F)F)cn34)n2)C1` [I-342, dimethyl(((3R,5R)-5-(5-methyl-1H-pyrazol-4-yl)-1-(2-(6-(trifluoromethyl)imidazo[1,2-a]pyridin-3-yl)pyrimidin-4-yl)piperidin-3-yl)imino)-λ6-sulfanone], the IC50 in assay [1] was less than 500 nM; at GCN2 kinase, 10 to 100 nM.

For `Cc1oncc1[C@@H]1CN(c2ccnc(-c3cnc4ccc(C(F)(F)F)cn34)n2)C[C@@H](C)O1` [I-343, (2R,6R)-2-methyl-6-(5-methylisoxazol-4-yl)-4-(2-(6-(trifluoromethyl)imidazo[1,2-a]pyridin-3-yl)pyrimidin-4-yl)morpholine], the IC50 in assay [1] lay within 500 to 5000 nM; at GCN2 kinase it was 100 to 1000 nM.

Consider `Cc1[nH]ncc1[C@H]1C[C@H](N=S(C)(C)=O)CN(c2ccnc(-c3cnc4ccc(C(F)(F)F)cn34)n2)C1` [I-344, dimethyl(((3 S,5R)-5-(5-methyl-1H-pyrazol-4-yl)-1-(2-(6-(trifluoromethyl)imidazo[1,2-a]pyridin-3-yl)pyrimidin-4-yl)piperidin-3-yl)imino)-λ6-sulfanone], for which the IC50 in assay [1] lay in the range of 500 to 5000 nM; against GCN2 kinase, 100 to 1000 nM.

Regarding `Cc1oncc1[C@H]1CN(c2ccnc(-c3cnc4ccc(C(F)(F)F)cn34)n2)C[C@H](C)O1` [I-345, (2S,6S)-2-methyl-6-(5-methylisoxazol-4-yl)-4-(2-(6-(trifluoromethyl)imidazo[1,2-a]pyridin-3-yl)pyrimidin-4-yl)morpholine], the IC50 in assay [1] lay within 500 to 5000 nM; on GCN2 kinase, 100 to 1000 nM.

In the case of `Cc1oncc1[C@@H]1CN(c2ccnc(-c3cnc4ccc(C(F)(F)F)cn34)n2)C[C@H](C)O1` [I-346, (2S,6R)-2-methyl-6-(5-methylisoxazol-4-yl)-4-(2-(6-(trifluoromethyl)imidazo[1,2-a]pyridin-3-yl)pyrimidin-4-yl)morpholine], the concentration for half-maximal inhibition (IC50) in assay [1] was less than 500 nM; on GCN2 kinase, 10 to 100 nM.

As for `Cc1oncc1[C@H]1CN(c2ccnc(-c3cnc4ccc(C(F)(F)F)cn34)n2)C[C@@H](C)O1` [I-347, (2R,6S)-2-methyl-6-(5-methylisoxazol-4-yl)-4-(2-(6-(trifluoromethyl)imidazo[1,2-a]pyridin-3-yl)pyrimidin-4-yl)morpholine], the half-inhibitory concentration (IC50) in assay [1] is 500 to 5000 nM; on GCN2 kinase, 100 to 1000 nM.

`CCOC1(N2CCN(c3ccnc(-c4cnc5ccc(C(F)(F)F)cn45)n3)C(C)C2c2cn[nH]c2)CC1` (stereo not shown) [I-348, 3-(4-(4-(1-ethoxycyclopropyl)-2-methyl-3-(1H-pyrazol-4-yl)piperazin-1-yl)pyrimidin-2-yl)-6-(trifluoromethyl)imidazo[1,2-a]pyridine]: the results for the half-inhibitory concentration (IC50) (in assay [1]; on GCN2 kinase) were less than 500 nM and 10 to 100 nM, respectively.

Regarding `NC(=O)[C@H]1CN(c2ccnc(-c3cnc4ccc(Cl)cn34)n2)CCN1C1CC1` [I-349, (R)-4-(2-(6-chloroimidazo[1,2-a]pyridin-3-yl)pyrimidin-4-yl)-1-cyclopropylpiperazine-2-carboxamide], the 50% inhibitory concentration (IC50) in assay [1] was 500 to 5000 nM; against GCN2 kinase, 10 to 100 nM.

Consider `FC(F)(F)c1ccc2ncc(-c3nccc(N4CCNC(c5cn[nH]c5)C4)n3)n2c1` (stereo not shown) [I-351, 3-(4-(3-(1H-pyrazol-4-yl)piperazin-1-yl)pyrimidin-2-yl)-6-(trifluoromethyl)imidazo[1,2-a]pyridine], for which the IC50 in assay [1] is less than 500 nM; on GCN2 kinase, less than 10 nM.

`OCC(O)CN1CCN(c2ccnc(-c3cnc4ccc(C(F)(F)F)cn34)n2)CC1c1cn[nH]c1` (stereo not shown) [I-352, 3-(2-(1H-pyrazol-4-yl)-4-(2-(6-(trifluoromethyl)imidazo[1,2-a]pyridin-3-yl)pyrimidin-4-yl)piperazin-1-yl)propane-1,2-diol]: the IC50 is 500 to 5000 nM in assay [1] and less than 10 nM against GCN2 kinase.

On to `FC(F)(F)c1ccc2ncc(-c3nccc(N4CCN(Cc5cocn5)C(c5cn[nH]c5)C4)n3)n2c1` (stereo not shown) [I-353, 4-((2-(1H-pyrazol-4-yl)-4-(2-(6-(trifluoromethyl)imidazo[1,2-a]pyridin-3-yl)pyrimidin-4-yl)piperazin-1-yl)methyl)oxazole], for which the IC50 was less than 500 nM in assay [1] and less than 10 nM against GCN2 kinase.

In the case of `FC(F)(F)c1ccc2ncc(-c3nccc(N4CCCC(n5ccc(C(F)(F)F)n5)C4)n3)n2c1` (stereo not shown) [I-355, 6-(trifluoromethyl)-3-(4-(3-(3-(trifluoromethyl)-1H-pyrazol-1-yl)piperidin-1-yl)pyrimidin-2-yl)imidazo[1,2-a]pyridine], the IC50 is 500 to 5000 nM in assay [1] and 100 to 1000 nM against GCN2 kinase.

For `FC(F)(F)c1ccc2ncc(-c3nccc(N4CCCC(n5cncn5)C4)n3)n2c1` (stereo not shown) [I-356, 3-(4-(3-(1H-1,2,4-triazol-1-yl)piperidin-1-yl)pyrimidin-2-yl)-6-(trifluoromethyl)imidazo[1,2-a]pyridine], the IC50 is 500 to 5000 nM in assay [1] and 10 to 100 nM at GCN2 kinase.

Turning to `Cc1n[nH]cc1C1CC(F)CN(c2ccnc(-c3cnc4ccc(C(F)(F)F)cn34)n2)C1` (stereo not shown) [I-357, 3-(4-(3-fluoro-5-(3-methyl-1H-pyrazol-4-yl)piperidin-1-yl)pyrimidin-2-yl)-6-(trifluoromethyl)imidazo[1,2-a]pyridine], the IC50 in assay [1] was less than 500 nM; against GCN2 kinase, 10 to 100 nM.

In the case of `Cc1n[nH]cc1C1CN(c2ccnc(-c3cnc4ccc(C(F)(F)F)cn34)n2)CC(C)O1` (stereo not shown) [I-358, 2-methyl-6-(3-methyl-1H-pyrazol-4-yl)-4-(2-(6-(trifluoromethyl)imidazo[1,2-a]pyridin-3-yl)pyrimidin-4-yl)morpholine], the IC50 in assay [1] is less than 500 nM; on GCN2 kinase it was less than 10 nM.

`Cc1n[nH]cc1[C@@H]1CN(c2ccnc(-c3cnc4cc(Cl)c(C(F)(F)F)cn34)n2)C[C@@H](C)O1` [I-360, (2R,6R)-4-(2-(7-chloro-6-(trifluoromethyl)imidazo[1,2-a]pyridin-3-yl)pyrimidin-4-yl)-2-methyl-6-(3-methyl-1H-pyrazol-4-yl)morpholine]: the 50% inhibitory concentration (IC50) in assay [1] is less than 500 nM; against GCN2 kinase, less than 10 nM.

The record behind these values is patent US10793563B2, “GCN2 inhibitors and uses thereof” (Merck Patent GmbH, priority 2018, dated 2020).
